Data published in paper PMC10178848, “Modulating fast skeletal muscle contraction protects skeletal muscle in animal models of Duchenne muscular dystrophy” (The Journal of Clinical Investigation, 2023).

System: GRMD plasma proteins
Assay type: in vivo, dog
Details: EDG-5506 treatment to GRMD baseline; Increased in GRMD

With `O=c1ccc(-c2cnc(OCC(F)(F)F)nc2)nn1Cc1cncc(F)c1` [EDG-5506] the “Change from GRMD Baseline (fraction): Fibronectin Fragment 4 (FN1)” value was -0.0853 fraction, the “Change from GRMD Baseline (fraction): Follistatin (FST)” value was -0.1433 fraction and the “Change from GRMD Baseline (fraction): Fractalkine (CX3CL1)” value was -0.1153 fraction. For the same molecule, the “Change from GRMD Baseline (fraction): Fructose-bisphosphate aldolase A (ALDOA)” value was 0.1605 fraction, the “Change from GRMD Baseline (fraction): G2/mitotic-specific cyclin-B1 (CCNB1)” value was -0.0054 fraction and the “Change from GRMD Baseline (fraction): Galectin-4 (LGALS4)” value was -0.0907 fraction. The “Change from GRMD Baseline (fraction): Galectin-7 (LGALS7)” value was -0.1308 fraction, the “Change from GRMD Baseline (fraction): Glucose-6-phosphate isomerase (GPI)” value was -0.4647 fraction and the “Change from GRMD Baseline (fraction): Glyceraldehyde-3-phosphate dehydrogenase (GAPDH)” value was -0.5078 fraction. The “Change from GRMD Baseline (fraction): Glycogen synthase kinase-3 alpha/beta (GSK3A GSK3B)” value was -0.3338 fraction, the “Change from GRMD Baseline (fraction): Granulocyte-macrophage colony-stimulating factor (CSF2)” value was -0.2326 fraction and the “Change from GRMD Baseline (fraction): Growth factor receptor-bound protein 2 (GRB2)” value was -0.3399 fraction. The “Change from GRMD Baseline (fraction): Growth/differentiation factor 5 (GDF5)” value was -0.0403 fraction, the “Change from GRMD Baseline (fraction): Heat shock 70 kDa protein 1A (HSPA1A)” value was -0.2859 fraction and the “Change from GRMD Baseline (fraction): Heat shock cognate 71 kDa protein (HSPA8)” value was -0.3616 fraction. For the same molecule, the “Change from GRMD Baseline (fraction): Heat shock protein HSP 90-alpha/beta (HSP90AA1 HSP90AB1)” value was -0.1032 fraction, the “Change from GRMD Baseline (fraction): Heat shock protein HSP 90-beta (HSP90AB1)” value was -0.0167 fraction and the “Change from GRMD Baseline (fraction): Heat shock protein beta-1 (HSPB1)” value was -0.0454 fraction. For the same molecule, the “Change from GRMD Baseline (fraction): Hepatoma-derived growth factor-related protein 2 (HDGFRP2)” value was -0.0887 fraction, the “Change from GRMD Baseline (fraction): Heterogeneous nuclear ribonucleoprotein A/B (HNRNPAB)” value was -0.2641 fraction and the “Change from GRMD Baseline (fraction): Heterogeneous nuclear ribonucleoprotein Q (SYNCRIP)” value was -0.2959 fraction. The “Change from GRMD Baseline (fraction): Heterogeneous nuclear ribonucleoproteins A2/B1 (HNRNPA2B1)” value was -0.2792 fraction, the “Change from GRMD Baseline (fraction): Hexokinase-2 (HK2)” value was -0.2831 fraction and the “Change from GRMD Baseline (fraction): Histidine triad nucleotide-binding protein 1 (HINT1)” value was -0.1184 fraction. The “Change from GRMD Baseline (fraction): Histone H1.2 (HIST1H1C)” value was -0.2004 fraction, the “Change from GRMD Baseline (fraction): Histone deacetylase 8 (HDAC8)” value was -0.1223 fraction and the “Change from GRMD Baseline (fraction): Homeodomain-interacting protein kinase 3 (HIPK3)” value was 0.4673 fraction. The “Change from GRMD Baseline (fraction): Immunoglobulin superfamily containing leucine-rich repeat protein 2 (ISLR2)” value was 0.163 fraction, the “Change from GRMD Baseline (fraction): Inducible T-cell costimulator (ICOS)” value was -0.069 fraction and the “Change from GRMD Baseline (fraction): Inosine-5'-monophosphate dehydrogenase 2 (IMPDH2)” value was -0.2973 fraction. For the same molecule, the “Change from GRMD Baseline (fraction): Insulin-degrading enzyme (IDE)” value was -0.2351 fraction, the “Change from GRMD Baseline (fraction): Insulin-like growth factor-binding protein 3 (IGFBP3)” value was -0.1253 fraction and the “Change from GRMD Baseline (fraction): Intercellular adhesion molecule 5 (ICAM5)” value was 0.2028 fraction. For the same molecule, the “Change from GRMD Baseline (fraction): Interferon alpha-10 (IFNA10)” value was 0.155 fraction, the “Change from GRMD Baseline (fraction): Interleukin-1 alpha (IL1A)” value was -0.061 fraction and the “Change from GRMD Baseline (fraction): Interleukin-1 receptor-like 2 (IL1RL2)” value was -0.0194 fraction. The “Change from GRMD Baseline (fraction): Interleukin-15 receptor subunit alpha (IL15RA)” value was -0.1087 fraction, the “Change from GRMD Baseline (fraction): Interleukin-17F (IL17F)” value was -0.0145 fraction and the “Change from GRMD Baseline (fraction): Interleukin-37 (IL37)” value was -0.0864 fraction. For the same molecule, the “Change from GRMD Baseline (fraction): Junctional adhesion molecule B (JAM2)” value was -0.0925 fraction, the “Change from GRMD Baseline (fraction): Junctional adhesion molecule C (JAM3)” value was -0.1846 fraction and the “Change from GRMD Baseline (fraction): Kallikrein-6 (KLK6)” value was -0.0597 fraction. For the same molecule, the “Change from GRMD Baseline (fraction): Kallikrein-12 (KLK12)” value was 0.0192 fraction, the “Change from GRMD Baseline (fraction): Kallikrein-14 (KLK14)” value was -0.165 fraction and the “Change from GRMD Baseline (fraction): Kin of IRRE-like protein 3 (KIRREL3)” value was -0.0664 fraction. For the same molecule, the “Change from GRMD Baseline (fraction): Kremen protein 2 (KREMEN2)” value was -0.1517 fraction, the “Change from GRMD Baseline (fraction): Kynureninase (KYNU)” value was -0.1154 fraction and the “Change from GRMD Baseline (fraction): L-Selectin (SELL)” value was -0.2072 fraction. For the same molecule, the “Change from GRMD Baseline (fraction): L-lactate dehydrogenase B chain (LDHB)” value was -0.3998 fraction, the “Change from GRMD Baseline (fraction): Leucine-rich repeat serine/threonine-protein kinase 2 (LRRK2)” value was -0.1394 fraction and the “Change from GRMD Baseline (fraction): Leucine-rich repeat transmembrane protein FLRT1 (FLRT1)” value was -0.1359 fraction. The “Change from GRMD Baseline (fraction): Low affinity immunoglobulin epsilon Fc receptor (FCER2)” value was -0.0521 fraction, the “Change from GRMD Baseline (fraction): MAP kinase-activated protein kinase 2 (MAPKAPK2)” value was -0.3216 fraction and the “Change from GRMD Baseline (fraction): MAP kinase-activated protein kinase 3 (MAPKAPK3)” value was -0.2837 fraction. For the same molecule, the “Change from GRMD Baseline (fraction): Macrophage scavenger receptor types I and II (MSR1)” value was -0.0382 fraction, the “Change from GRMD Baseline (fraction): Malate dehydrogenase, cytoplasmic (MDH1)” value was -0.1486 fraction and the “Change from GRMD Baseline (fraction): Methionine aminopeptidase 2 (METAP2)” value was -0.1671 fraction. For the same molecule, the “Change from GRMD Baseline (fraction): Microtubule-associated protein tau (MAPT)” value was -0.2425 fraction, the “Change from GRMD Baseline (fraction): Mitogen-activated protein kinase 3 (MAPK3)” value was -0.2851 fraction and the “Change from GRMD Baseline (fraction): Mitogen-activated protein kinase 8 (MAPK8)” value was -0.2995 fraction. The “Change from GRMD Baseline (fraction): Mitogen-activated protein kinase 12 (MAPK12)” value was -0.3528 fraction, the “Change from GRMD Baseline (fraction): Mitogen-activated protein kinase 14 (MAPK14)” value was -0.2706 fraction and the “Change from GRMD Baseline (fraction): Mothers against decapentaplegic homolog 3 (SMAD3)” value was -0.0452 fraction. The “Change from GRMD Baseline (fraction): Myeloblastin (PRTN3)” value was 0.0617 fraction, the “Change from GRMD Baseline (fraction): Myoglobin (MB)” value was -0.422 fraction and the “Change from GRMD Baseline (fraction): Myosin-binding protein C, slow-type (MYBPC1)” value was 0.1932 fraction. For the same molecule, the “Change from GRMD Baseline (fraction): NKG2D ligand 2 (ULBP2)” value was -0.0329 fraction, the “Change from GRMD Baseline (fraction): NSFL1 cofactor p47 (NSFL1C)” value was -0.3479 fraction and the “Change from GRMD Baseline (fraction): Natural cytotoxicity triggering receptor 3 (NCR3)” value was -0.0271 fraction. The “Change from GRMD Baseline (fraction): Neuronal cell adhesion molecule (NRCAM)” value was 0.199 fraction, the “Change from GRMD Baseline (fraction): Neutral ceramidase (ASAH2)” value was -0.1226 fraction and the “Change from GRMD Baseline (fraction): Nucleoside diphosphate kinase A (NME1)” value was -0.3054 fraction. The “Change from GRMD Baseline (fraction): OCIA domain-containing protein 1 (OCIAD1)” value was -0.019 fraction, the “Change from GRMD Baseline (fraction): Oncostatin-M (OSM)” value was -0.0794 fraction and the “Change from GRMD Baseline (fraction): Opioid-binding protein/cell adhesion molecule (OPCML)” value was -0.0946 fraction. For the same molecule, the “Change from GRMD Baseline (fraction): PIK3CA/PIK3R1 (PIK3CA PIK3R1)” value was -0.2992 fraction, the “Change from GRMD Baseline (fraction): Parathyroid hormone-related protein (PTHLH)” value was -0.1165 fraction and the “Change from GRMD Baseline (fraction): Peptidyl-prolyl cis-trans isomerase E (PPIE)” value was -0.2567 fraction. The “Change from GRMD Baseline (fraction): Peroxiredoxin-1 (PRDX1)” value was -0.376 fraction, the “Change from GRMD Baseline (fraction): Peroxiredoxin-6 (PRDX6)” value was -0.4044 fraction and the “Change from GRMD Baseline (fraction): Phosphatidylethanolamine-binding protein 1 (PEBP1)” value was -0.1964 fraction. The “Change from GRMD Baseline (fraction): Phosphoglucomutase-1 (PGM1)” value was -0.1676 fraction, the “Change from GRMD Baseline (fraction): Phosphoglycerate mutase 1 (PGAM1)” value was 0.2377 fraction and the “Change from GRMD Baseline (fraction): Plasma serine protease inhibitor (SERPINA5)” value was -0.1552 fraction. The “Change from GRMD Baseline (fraction): Platelet glycoprotein 4 (CD36)” value was -0.0717 fraction, the “Change from GRMD Baseline (fraction): Platelet-activating factor acetylhydrolase (PLA2G7)” value was -0.1993 fraction and the “Change from GRMD Baseline (fraction): Platelet-derived growth factor receptor alpha (PDGFRA)” value was -0.052 fraction. For the same molecule, the “Change from GRMD Baseline (fraction): Proliferating cell nuclear antigen (PCNA)” value was -0.2439 fraction, the “Change from GRMD Baseline (fraction): Protein NOV homolog (NOV)” value was -0.0815 fraction and the “Change from GRMD Baseline (fraction): Protein S100-A12 (S100A12)” value was -0.0694 fraction. The “Change from GRMD Baseline (fraction): RAC-alpha/beta/gamma serine/threonine-protein kinase (AKT1 AKT2 AKT3)” value was -0.3391 fraction, the “Change from GRMD Baseline (fraction): RAC-beta serine/threonine-protein kinase (AKT2)” value was -0.2794 fraction and the “Change from GRMD Baseline (fraction): Rab GDP dissociation inhibitor beta (GDI2)” value was -0.3851 fraction. The “Change from GRMD Baseline (fraction): Receptor tyrosine-protein kinase erbB-3 (ERBB3)” value was 0.0234 fraction, the “Change from GRMD Baseline (fraction): Receptor-type tyrosine-protein kinase FLT3 (FLT3)” value was -0.1824 fraction and the “Change from GRMD Baseline (fraction): Renin (REN)” value was -0.0274 fraction. For the same molecule, the “Change from GRMD Baseline (fraction): Retinoblastoma-associated protein (RB1)” value was -0.0961 fraction, the “Change from GRMD Baseline (fraction): S-formylglutathione hydrolase (ESD)” value was -0.2877 fraction and the “Change from GRMD Baseline (fraction): Serine/threonine-protein kinase 17B (STK17B)” value was -0.0905 fraction. For the same molecule, the “Change from GRMD Baseline (fraction): Serine/threonine-protein kinase Chk2 (CHEK2)” value was 0.2279 fraction, the “Change from GRMD Baseline (fraction): Serine/threonine-protein kinase WNK3 (WNK3)” value was -0.1692 fraction and the “Change from GRMD Baseline (fraction): Serine/threonine-protein kinase receptor R3 (ACVRL1)” value was -0.0902 fraction. For the same molecule, the “Change from GRMD Baseline (fraction): Small nuclear ribonucleoprotein F (SNRPF)” value was -0.0313 fraction, the “Change from GRMD Baseline (fraction): Somatostatin-28 (SST)” value was 0.1915 fraction and the “Change from GRMD Baseline (fraction): T-lymphocyte activation antigen CD80 (CD80)” value was -0.0767 fraction. The “Change from GRMD Baseline (fraction): Thymic stromal lymphopoietin (TSLP)” value was -0.0628 fraction, the “Change from GRMD Baseline (fraction): Thyroid peroxidase (TPO)” value was -0.1126 fraction and the “Change from GRMD Baseline (fraction): Tissue factor pathway inhibitor (TFPI)” value was 0.0479 fraction. For the same molecule, the “Change from GRMD Baseline (fraction): Transcription factor AP-1 (JUN)” value was -0.1004 fraction, the “Change from GRMD Baseline (fraction): Transketolase (TKT)” value was -0.3602 fraction and the “Change from GRMD Baseline (fraction): Translationally-controlled tumor protein (TPT1)” value was -0.3694 fraction. For the same molecule, the “Change from GRMD Baseline (fraction): Triosephosphate isomerase (TPI1)” value was -0.5129 fraction, the “Change from GRMD Baseline (fraction): Tropomyosin beta chain (TPM2)” value was -0.0815 fraction and the “Change from GRMD Baseline (fraction): Troponin I, cardiac muscle (TNNI3)” value was 0.0173 fraction. For the same molecule, the “Change from GRMD Baseline (fraction): Troponin I, fast skeletal muscle (TNNI2)” value was 0.1681 fraction, the “Change from GRMD Baseline (fraction): Troponin T, cardiac muscle (TNNT2)” value was 0.0317 fraction and the “Change from GRMD Baseline (fraction): Tumor necrosis factor ligand superfamily member 11 (TNFSF11)” value was -0.1211 fraction. The “Change from GRMD Baseline (fraction): Tumor necrosis factor receptor superfamily member 1B (TNFRSF1B)” value was -0.1149 fraction and the “Change from GRMD Baseline (fraction): Tumor necrosis factor receptor superfamily member 3 (LTBR)” value was -0.1112 fraction.
